Test results as given in the supplement of paper PMC10307832.

Tests used:
Test in all cases: relative viability (nuclei count vs DMSO), 5 days (fraction); higher = more cells survive
RU-SKI 43 + OSI-027 = compound: CC[C@@H](C)CNCC(=O)N1CCC2=C([C@@H]1COC3=CC=CC(=C3)C)C=CS2 [RU-SKI 43] + COc1cccc2cc(-c3nc([C@H]4CC[C@H](C(=O)O)CC4)n4ncnc(N)c34)[nH]c12 [OSI-027] (partner 0.5 µM)
Method in brief: (§1)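 Lung cancer cell lines were seeded in 1536-well plates and dosed by pin tool the next day, with either a single drug or a fixed anchor-drug dose combined with five library-drug doses (not always all listed) spaced in √10 steps. Five days later, one step fixed the cells and stained their nuclei (final 0.05% Triton X-100, 1% formaldehyde, 1 ug/ml Hoechst), and nuclei were counted on 4× images. Relative viability is the nuclei count in treated wells divided by the count in vehicle wells, and each value is the median of duplicate plates.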

Irinotecan + AZD7762 = compound: CCc1c2c(nc3ccc(OC(=O)N4CCC(N5CCCCC5)CC4)cc13)-c1cc3c(c(=O)n1C2)COC(=O)[C@]3(O)CC [Irinotecan] + NC(=O)Nc1cc(-c2cccc(F)c2)sc1C(=O)N[C@H]1CCCNC1 [AZD7762] (partner 0.2 µM)
Method in brief: as §1

MK-8033 + OSI-027 = compound: Cn1cc(-c2cnc3ccc4ccc(CS(=O)(=O)NCc5ccccn5)cc4c(=O)c3c2)cn1 [MK-8033] + COc1cccc2cc(-c3nc([C@H]4CC[C@H](C(=O)O)CC4)n4ncnc(N)c34)[nH]c12 [OSI-027] (partner 0.5 µM)
Method in brief: as §1

MK-8033 + Phenformin = compound: Cn1cc(-c2cnc3ccc4ccc(CS(=O)(=O)NCc5ccccn5)cc4c(=O)c3c2)cn1 [MK-8033] + N=C(N)NC(=N)NCCc1ccccc1 [Phenformin] (partner 250 µM)
Method in brief: as §1

Cell Line | relative viability (RU-SKI 43 + OSI-027; first compound 0.1 µM) | relative viability (RU-SKI 43 + OSI-027; first compound 0.3162 µM) | relative viability (RU-SKI 43 + OSI-027; first compound 1 µM) | relative viability (RU-SKI 43 + OSI-027; first compound 3.162 µM) | relative viability (RU-SKI 43 + OSI-027; first compound 10 µM) | relative viability (Irinotecan + AZD7762; first compound 0.6325 µM) | relative viability (Irinotecan + AZD7762; first compound 2 µM) | relative viability (Irinotecan + AZD7762; first compound 6.325 µM) | relative viability (Irinotecan + AZD7762; first compound 20 µM) | relative viability (MK-8033 + OSI-027; first compound 0.02 µM) | relative viability (MK-8033 + OSI-027; first compound 0.06325 µM) | relative viability (MK-8033 + OSI-027; first compound 0.2 µM) | relative viability (MK-8033 + OSI-027; first compound 0.6325 µM) | relative viability (MK-8033 + OSI-027; first compound 2 µM) | relative viability (MK-8033 + Phenformin; first compound 0.02 µM) | relative viability (MK-8033 + Phenformin; first compound 0.06325 µM) | relative viability (MK-8033 + Phenformin; first compound 0.2 µM) | relative viability (MK-8033 + Phenformin; first compound 0.6325 µM) | relative viability (MK-8033 + Phenformin; first compound 2 µM)
NCI-H1651 | 0.838 | 0.768 | 0.878 | 0.764 | 0.846 | 0.234 | 0.368 | 0.172 | 0.15 | 0.735 | 0.541 | 0.757 | 0.646 | 0.699 | 0.429 | 0.29 | 0.346 | 0.312 | 0.304
NCI-H1355 | 0.408 | 0.378 | 0.486 | 0.428 | 0.442 |  | 0.68 | 0.368 | 0.257 | 0.366 | 0.296 | 0.404 | 0.423 | 0.411 | 0.444 | 0.401 | 0.424 | 0.435 | 0.432
NCI-H1563 | 0.772 | 0.778 | 0.819 | 0.75 | 0.786 |  |  |  |  | 0.789 | 0.8 | 0.727 | 0.807 | 0.724 | 0.711 | 0.669 | 0.602 | 0.679 | 0.642
NCI-H1650 | 0.597 | 0.584 | 0.835 | 0.618 | 0.618 |  |  |  |  | 0.677 | 0.404 | 0.568 | 0.644 | 0.485 | 0.412 | 0.285 | 0.38 | 0.441 | 0.399
HCC-78 | 0.392 | 0.392 | 0.406 | 0.386 | 0.419 | 0.629 | 0.666 | 0.392 | 0.302 | 0.352 |  | 0.329 | 0.34 | 0.398 | 0.806 |  | 0.668 | 0.728 | 0.799
NCI-H1437 | 0.986 | 0.855 | 0.865 | 0.943 | 0.862 | 0.891 | 0.557 | 0.261 | 0.174 | 1.03 | 0.849 | 0.808 | 0.839 | 0.83 | 0.293 | 0.291 | 0.291 | 0.324 | 0.267
BEN | 0.31 | 0.292 | 0.306 | 0.302 | 0.33 | 0.55 | 0.677 | 0.447 | 0.472 | 0.305 | 0.298 | 0.295 | 0.284 | 0.244 | 0.288 | 0.239 | 0.269 | 0.233 | 0.255
LCLC-103H | 0.512 | 0.576 | 0.567 | 0.486 | 0.56 | 0.458 | 0.682 | 0.497 | 0.4 | 0.412 | 0.469 | 0.437 | 0.448 | 0.509 | 0.378 | 0.334 | 0.314 | 0.355 | 0.396
NCI-H1915 | 0.641 | 0.706 | 0.703 | 0.686 | 0.614 | 0.387 | 0.346 | 0.165 | 0.127 | 0.649 | 0.559 | 0.62 | 0.65 | 0.596 | 0.356 | 0.315 | 0.373 | 0.391 | 0.376
NCI-H2085 | 0.705 | 0.678 | 0.696 | 0.834 | 0.552 | 0.771 | 0.942 | 0.957 | 0.672 | 0.762 | 0.728 | 0.653 | 0.643 | 0.7 | 0.736 | 0.554 | 0.694 | 0.703 | 0.674
NCI-H23 | 0.659 | 0.523 | 0.782 | 0.709 | 0.5 | 0.158 | 0.238 | 0.251 | 0.202 | 0.496 | 0.525 | 0.553 | 0.605 | 0.538 | 0.795 | 0.81 | 0.715 | 0.857 | 0.814
EPLC-272H | 0.32 | 0.222 | 0.278 | 0.326 | 0.282 |  | 0.234 | 0.133 | 0.137 | 0.271 | 0.291 | 0.299 | 0.306 | 0.276 | 0.347 | 0.228 | 0.359 | 0.325 | 0.331
SK-MES-1 | 0.491 | 0.65 | 0.737 | 0.791 | 0.569 |  |  |  |  | 0.621 | 0.592 | 0.566 | 0.605 | 0.535 | 0.67 | 0.622 | 0.634 | 0.719 | 0.671
A549 |  |  |  |  |  |  |  |  |  |  |  |  |  |  | 0.221 | 0.157 | 0.172 | 0.148 | 0.193
NCI-H2126 | 0.681 | 0.627 | 0.777 | 0.678 | 0.715 | 0.618 | 0.889 | 0.65 | 0.302 | 0.752 | 0.666 | 0.764 | 0.595 | 0.808 | 0.511 | 0.494 | 0.497 | 0.533 | 0.51
NCI-H2087 | 0.666 | 0.56 | 0.705 | 0.563 | 0.516 | 0.586 | 0.387 | 0.242 | 0.226 | 0.546 | 0.519 | 0.443 | 0.642 | 0.617 | 0.5 | 0.434 | 0.417 | 0.435 | 0.386
EMC-BAC-2 | 0.336 | 0.32 | 0.365 | 0.378 | 0.361 | 0.942 | 0.696 | 0.327 | 0.287 | 0.384 | 0.408 | 0.395 | 0.375 | 0.386 | 0.554 | 0.509 | 0.531 | 0.556 | 0.494
SW 900 | 0.684 | 0.595 | 0.782 | 0.604 | 0.53 |  | 0.587 | 0.472 | 0.404 | 0.597 | 0.437 | 0.515 | 0.448 | 0.597 | 0.466 | 0.649 | 0.603 | 0.591 | 0.499
